From patent publication US12479858B2, “Macrocyclic compounds as sting agonists and methods and uses thereof” (Lupin Limited, priority 2019, dated 2025)
“Also recorded” adds a separate entry of the source. Where a name gives a salt, the structure may show the parent alone. Read-outs that look alike come from different tables or passages of the source.

Columns and labels:
[1] = system: CD3^+CD8^+ T cells; experiment: Estimation of immune cell infiltration in tumors (flow cytometry); format: in vivo, Balb/c mice
Protocol: Estimation of immune cell infiltration in tumors: CT-26 tumor-bearing Balb/c mice were treated intravenously with 0.375 mg/kg of test compounds and blood and tumors were processed for analysis of CD8^+, CD3^+ and CD45^+ T cells at 24 h and 96 h after start of treatment. Blood samples were subjected to RBC lysis and the cells were recovered by centrifugation. Following wash with PBS, the cells were blocked using TruStain FcX™ blocking antibody and stained with fluorophore-tagged anti-CD45, anti-CD3 and anti-CD8 antibodies. Tumor samples were minced and subjected to tissue digestion using freshly prepared collagenase-IV solution (1 mg/ml) containing DNase (0.05 mg/ml) for 1-1.5 h at 37° C. and 150-200 rpm. Single cell suspension was prepared by filtering it through a 100 μm mesh and checked for cell viability. Cells were stained with various antibodies as mentioned above. The distinct T cell subsets were analysed on FACS Canto II (BD) and percentage of each population was calculated after initial gating of CD45^+ lymphocyte population.

[2] = system: Interferon beta (IFNβ), interleukin-6 (IL-6) and tumor necrosis factor alpha (TNFα); experiment: Serum and tumor cytokine levels in CT26 tumor-bearing mice (ELISA); format: in vivo, BALB/c mice
Protocol: (§1) Pharmacokinetic and Pharmacodynamic Profiling and Estimation of Immune Cell Infiltration in Tumors Following Treatment with Compounds 2, 6, 8, 12 and 14
(§2) Serum and tumor cytokine levels and corresponding compound concentrations in mouse plasma were determined following single-dose intravenous administration in CT26 (murine colorectal carcinoma) tumor-bearing mice. Briefly, naïve BALB/c mice in the age group of 6-8 weeks were inoculated with 0.1 million CT-26 cells/animal in phosphate buffered saline (PBS), subcutaneously. […] Blood and tumor samples were harvested at various time points up to 24 h post-dose. Tumor samples were homogenized and prepared for cytokine estimation (ELISA) and compound concentration were determined by LC-MS/MS. Serum aliquots and tumor samples were snap-frozen and stored at −80° C. till further analysis. Serum and tumor samples were evaluated for Interferon beta (IFNβ), interleukin-6 (IL-6) and tumor necrosis factor alpha (TNFα) by enzyme linked immunosorbent assay (ELISA) using kits from R & D systems (Quantikine mouse IL-6 and TNFα kits) and PBL biosciences (Verikine mouse IFNβ kit).
Cytokine analysis from mouse serum samples: For IL-6 and TNFα estimation, 50 μL of test samples or internal standard or control were applied to wells in duplicates and incubated for 2 h at room temperature, followed by aspiration and washing four times with 400 μL of wash buffer. 100 μL of mouse IL-6 or TNFα conjugate solution was added and incubated further for 2 h at room temperature and followed later by 4 wash cycles. 100 μL of substrate solution was added to each well with addition of stop solution after 30 min. Optical density was measured at 450 nm averaged and was used for further calculations following subtraction of respective blank controls. Cytokine concentrations were determined by interpolating the optical density of samples into the reference standard curve utilizing four parameter logistic (4-PL) curve-fit. Cytokine concentrations were normalized with their respective dilution factors and represented in pg/mL. For IFNβ estimation, 100 μL test sample or internal standard or controls were applied to the wells in duplicates and incubated for 1 h at room temperature followed by three washes and addition of the anti-mouse IFNβ antibody solution with further 1 h incubation. This was followed by addition of horseradish peroxidase (HRP) solution and three washes, later addition of TMB substrate and reading the optical density at 450 nm. Optical densities were blank-subtracted and interpolated to the reference standard utilizing the four parameter logistic (4-PL) curve-fit. Cytokine concentrations were normalized with their respective dilution factors and represented in pg/mL. Tables 4 and 5 indicate cytokine levels for compounds 2, 6, 8, 12, and 14 in serum and tumor at different administered doses.
Cytokine analysis from tumor samples: Tumor samples were homogenized in a bead-based homogenizer and lysates were prepared with buffer supplemented with 1% Triton X-100 and protease inhibitors. Cytokine levels were estimated by ELISA and expressed as pg/g tumor.

[3] = Apparent solubility/extended kinetic solubility by UHPLC; format: physicochemical; conditions: aqueous buffer, thermodynamic from solid, phosphate buffer, 37° C.
Protocol: Biological Assay—Determination of Apparent Solubility/Extended Kinetic Solubility by UHPLC
Test sample preparation: About 0.5 mg of the test sample was weighed and transferred in duplicate in 1 mL glass inserts of 96 well plates. 5 μL of DMSO and 1 ml of phosphate buffer were added. Allowed for equilibrium in an orbital shaker at 37° C. for 24 hrs. Later, allowed it cool to room temperature and centrifuged the 96 well plate (at 240×10 RPM for 20 min) and supernatant material was taken into collection plate, covered it with the heat resistant aluminum sheet or supernatant material was directly taken into HPLC sample vial.
Injected diluent as blank and linearity solutions in duplicate. Recorded the chromatograms and plotted the calibration curve, concentration (X-axis) versus Area (y-axis). The correlation coefficient for calibration curve should be not less than 0.95. If above criteria passes, then injected the test samples and recorded the chromatograms. In case saturated peaks are observed, then diluted the test sample with diluent as appropriate.
Calculated the slope and intercept of the calibration curve. From the standard curve, determined the solubility of the sample in μM (micromolar).

[4] = Plasma and tumor compound concentrations in CT26 tumor-bearing mice (LC-MS/MS); format: in vivo, BALB/c mice; conditions: for concentration at 3.5 h / concentration at 8 h / concentration at 12 h: BALB/c, mouse, intravenous; for concentration at 12 h: 12 h (Table 3)
Protocol: as §1, §2
Bioanalysis of plasma and tumor samples: Plasma and tumor concentrations of test compounds were determined by LC-MS/MS method. Tumor samples were homogenized utilizing a bead-based homogenizer. Plasma samples and tumor homogenates were extracted using protein precipitation method with organic solution containing respective internal standards. Plasma and tumor concentrations were determined against respective calibration curve. Table 3 indicates the concentration of Compound 2 in plasma and tumor at different administered doses. Table 4 indicates the concentration of Compounds 6, 8, 12, and 14 in plasma and tumor at different administered doses. Table 5 indicates cytokine levels for Compound 2 in serum and tumor at different doses. Table 6 indicates cytokine levels for Compounds 6, 8, 12 and 14 in serum and tumor at 0.375 mpk.

[5] = CT26 tumor-bearing mice, single i.v. dose

- solubility at 24 h [3]: 3.57 mM
- concentration at 3.5 h ([4]; plasma, 0.093 mg/kg single i.v., 3.5 h, read-out: Plasma Conc.): 110 ± 10 nM
- concentration at 8 h ([4]; plasma, 0.093 mg/kg single i.v., 8 h, read-out: Plasma Conc.): 30 nM
- concentration at 3.5 h ([4]; plasma, 0.187 mg/kg single i.v., 3.5 h, read-out: Plasma Conc.): 220 ± 20 nM
- concentration at 8 h ([4]; plasma, 0.187 mg/kg single i.v., 8 h, read-out: Plasma Conc.): 40 ± 10 nM
- concentration at 3.5 h ([4]; plasma, 0.375 mg/kg single i.v., 3.5 h (Table 3), read-out: Plasma Conc.): 470 ± 60 nM
- concentration at 8 h ([4]; plasma, 0.375 mg/kg single i.v., 8 h (Table 3), read-out: Plasma Conc.): 80 ± 10 nM
- concentration at 12 h ([4]; plasma, 0.375 mg/kg single i.v., read-out: Plasma Conc.): 50 ± 10 nM
- concentration at 3.5 h ([4]; tumor, 0.093 mg/kg single i.v., 3.5 h, read-out: Tumor Conc.): 70 ± 20 nM
- concentration at 8 h ([4]; tumor, 0.093 mg/kg single i.v., 8 h, read-out: Tumor Conc.): 60 ± 30 nM
- concentration at 3.5 h ([4]; tumor, 0.187 mg/kg single i.v., 3.5 h, read-out: Tumor Conc.): 90 ± 20 nM
- concentration at 8 h ([4]; tumor, 0.187 mg/kg single i.v., 8 h, read-out: Tumor Conc.): 120 ± 80 nM
- concentration at 3.5 h ([4]; tumor, 0.375 mg/kg single i.v., 3.5 h (Table 3), read-out: Tumor Conc.): 230 ± 120 nM
- concentration at 8 h ([4]; tumor, 0.375 mg/kg single i.v., 8 h (Table 3), read-out: Tumor Conc.): 140 ± 50 nM
- concentration at 12 h ([4]; tumor, 0.375 mg/kg single i.v., read-out: Tumor Conc.): 110 ± 60 nM
- compound levels in tumor [4, 5]: sustained levels in tumor
Compound: CCn1nc(C)cc1C(=O)Nc1nc2cc(C(N)=O)cc3c2n1C/C=C/Cn1c(NC(=O)c2cc(C)nn2CC)nc2cc(C(=O)N[C@H]4CC[C@H](C(=O)O)CC4)cc(c21)OCCCO3 [Compound 2, (1R,4R)-4-((E)-12-carbamoyl-1,15-bis(1-ethyl-3-methyl-1H-pyrazole-5-carboxamido)-8,9,16,19-tetrahydro-7H-6,10-dioxa-2,14,15a,19a-tetraazacyclopentadeca[3,2,1-cd:8,9,10-c′d′]diindene-4-carboxamido)cyclohexane-1-carboxylic acid sodium salt]
- % CD3^+CD8^+ T cells ([1]; infiltration in tumor, 96 h post treatment, 0.375 mg/kg single i.v.): 11.2 ± 0.2%
- % CD3^+CD8^+ T cells infiltrating the tumor as compared to the vehicle-treated group ([1]; single i.v. dose of 0.375 mg/kg, 96 h post treatment initiation, sodium salt, 0.375 mg/kg): higher percentage of T cell infiltration over that of vehicle control; also recorded: increase
- Serum Cytokines IFNβ ([2]; 0.093 mg/kg single i.v., 3.5 h): 446 pg/mL
- Serum Cytokines IL-6 ([2]; 0.093 mg/kg single i.v., 3.5 h): 1323 pg/mL
- Serum Cytokines TNFα ([2]; 0.093 mg/kg single i.v., 3.5 h): 261 pg/mL
- Tumor Cytokines IFNβ ([2]; 0.093 mg/kg single i.v., 3.5 h): 4000 pg/g
- Tumor Cytokines IL-6 ([2]; 0.093 mg/kg single i.v., 3.5 h): 4580 pg/g
- Tumor Cytokines TNFα ([2]; 0.093 mg/kg single i.v., 3.5 h): 2460 pg/g
- Serum Cytokines IFNβ ([2]; 0.093 mg/kg single i.v., 8 h): 64 pg/mL
- Serum Cytokines IL-6 ([2]; 0.093 mg/kg single i.v., 8 h): 662 pg/mL
- Serum Cytokines TNFα ([2]; 0.093 mg/kg single i.v., 8 h): 210 pg/mL
- Tumor Cytokines IFNβ ([2]; 0.093 mg/kg single i.v., 8 h): 955 pg/g
- Tumor Cytokines IL-6 ([2]; 0.093 mg/kg single i.v., 8 h): 1100 pg/g
- Tumor Cytokines TNFα ([2]; 0.093 mg/kg single i.v., 8 h): 637 pg/g
- Serum Cytokines IFNβ ([2]; 0.187 mg/kg single i.v., 3.5 h): 1920 pg/mL
- Serum Cytokines IL-6 ([2]; 0.187 mg/kg single i.v., 3.5 h): 3139 pg/mL
- Serum Cytokines TNFα ([2]; 0.187 mg/kg single i.v., 3.5 h): 574 pg/mL
- Tumor Cytokines IFNβ ([2]; 0.187 mg/kg single i.v., 3.5 h): 4169 pg/g
- Tumor Cytokines IL-6 ([2]; 0.187 mg/kg single i.v., 3.5 h): 4798 pg/g
- Tumor Cytokines TNFα ([2]; 0.187 mg/kg single i.v., 3.5 h): 3201 pg/g
- Serum Cytokines IFNβ ([2]; 0.187 mg/kg single i.v., 8 h): 127 pg/mL
- Serum Cytokines IL-6 ([2]; 0.187 mg/kg single i.v., 8 h): 738 pg/mL
- Serum Cytokines TNFα ([2]; 0.187 mg/kg single i.v., 8 h): 136 pg/mL
- Tumor Cytokines IFNβ ([2]; 0.187 mg/kg single i.v., 8 h): 962 pg/g
- Tumor Cytokines IL-6 ([2]; 0.187 mg/kg single i.v., 8 h): 2244 pg/g
- Tumor Cytokines TNFα ([2]; 0.187 mg/kg single i.v., 8 h): 531 pg/g
- Serum Cytokines IFNβ ([2]; 0.375 mg/kg single i.v., 3.5 h): 8540 pg/mL
- Serum Cytokines IL-6 ([2]; 0.375 mg/kg single i.v., 3.5 h): 6014 pg/mL
- Serum Cytokines TNFα ([2]; 0.375 mg/kg single i.v., 3.5 h): 1242 pg/mL
- Tumor Cytokines IFNβ ([2]; 0.375 mg/kg single i.v., 3.5 h): 8044 pg/g
- Tumor Cytokines IL-6 ([2]; 0.375 mg/kg single i.v., 3.5 h): 8103 pg/g
- Tumor Cytokines TNFα ([2]; 0.375 mg/kg single i.v., 3.5 h): 6074 pg/g
- Serum Cytokines IFNβ ([2]; 0.375 mg/kg single i.v., 8 h): 263 pg/mL
- Serum Cytokines IL-6 ([2]; 0.375 mg/kg single i.v., 8 h): 1201 pg/mL
- Serum Cytokines TNFα ([2]; 0.375 mg/kg single i.v., 8 h): 160 pg/mL
- Tumor Cytokines IFNβ ([2]; 0.375 mg/kg single i.v., 8 h): 1723 pg/g
- Tumor Cytokines IL-6 ([2]; 0.375 mg/kg single i.v., 8 h): 2715 pg/g
- Tumor Cytokines TNFα ([2]; 0.375 mg/kg single i.v., 8 h): 617 pg/g
- Serum Cytokines IFNβ ([2]; 0.375 mg/kg single i.v., 12 h): 14 pg/mL
- Serum Cytokines IL-6 ([2]; 0.375 mg/kg single i.v., 12 h): 372 pg/mL
- Serum Cytokines TNFα ([2]; 0.375 mg/kg single i.v., 12 h): 50 pg/mL
- Tumor Cytokines IFNβ ([2]; 0.375 mg/kg single i.v., 12 h): 323 pg/g
- Tumor Cytokines IL-6 ([2]; 0.375 mg/kg single i.v., 12 h): 2794 pg/g
- Tumor Cytokines TNFα ([2]; 0.375 mg/kg single i.v., 12 h): 298 pg/g
- cytokine levels over time [2, 5]: sustained cytokine levels
